pIC50: −log10 of the molar value.

The subject of experiment [1] is Rattus norvegicus. As to the kind of experiment: Decrease in mean arterial blood pressure in aorta coated rats 3 mg/kg of oral dose after 4 hr. Format: functional.
Experiment [2] deals with Rattus norvegicus. The experiment in a line: Tested for […] in the […] rat at 3 mg/kg of oral dose; […]. Details: dose 3 mg/kg. Format: functional, organism-based.
In experiment [3] the target is T1, Type-1 angiotensin II receptor (Bos taurus, UniProt P25104).
T1 sequence (P25104 whole entry): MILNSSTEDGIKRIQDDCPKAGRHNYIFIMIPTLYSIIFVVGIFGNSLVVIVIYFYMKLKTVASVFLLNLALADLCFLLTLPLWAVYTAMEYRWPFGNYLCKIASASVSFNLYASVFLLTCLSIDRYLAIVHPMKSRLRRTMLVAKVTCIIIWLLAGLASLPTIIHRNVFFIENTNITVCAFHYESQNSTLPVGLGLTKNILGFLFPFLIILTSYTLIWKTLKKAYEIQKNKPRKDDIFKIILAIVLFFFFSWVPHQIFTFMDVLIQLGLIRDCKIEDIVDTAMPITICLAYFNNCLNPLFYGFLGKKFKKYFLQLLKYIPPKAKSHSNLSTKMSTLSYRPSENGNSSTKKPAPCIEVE
The experiment in a line: Binding affinity expressed as inhibitory concentration towards bovine adrenal cortex angiotensin II receptor was measured. Format: tissue-based.

Experiment [4] concerns Rattus norvegicus. As to the kind of experiment: Change in mean arterial blood pressure in conscious renin dependent […] rats 1 mg/kg of oral dose after 5 hr. Format: functional.
Experiment [5] has as its target T2, Angiotensin II receptor (Rattus norvegicus, UniProt P29089+P25095+P35351).
T2 sequence (P29089 whole entry): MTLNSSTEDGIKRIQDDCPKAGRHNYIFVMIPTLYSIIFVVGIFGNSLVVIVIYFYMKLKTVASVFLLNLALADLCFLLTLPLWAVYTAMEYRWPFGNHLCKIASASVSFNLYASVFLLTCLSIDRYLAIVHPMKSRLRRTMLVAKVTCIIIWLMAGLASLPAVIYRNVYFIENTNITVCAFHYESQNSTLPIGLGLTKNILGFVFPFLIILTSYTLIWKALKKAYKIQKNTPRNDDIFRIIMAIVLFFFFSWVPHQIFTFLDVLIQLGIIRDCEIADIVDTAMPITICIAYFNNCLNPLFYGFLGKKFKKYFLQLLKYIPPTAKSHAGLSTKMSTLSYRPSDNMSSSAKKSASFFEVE
T2 sequence (P25095 whole entry): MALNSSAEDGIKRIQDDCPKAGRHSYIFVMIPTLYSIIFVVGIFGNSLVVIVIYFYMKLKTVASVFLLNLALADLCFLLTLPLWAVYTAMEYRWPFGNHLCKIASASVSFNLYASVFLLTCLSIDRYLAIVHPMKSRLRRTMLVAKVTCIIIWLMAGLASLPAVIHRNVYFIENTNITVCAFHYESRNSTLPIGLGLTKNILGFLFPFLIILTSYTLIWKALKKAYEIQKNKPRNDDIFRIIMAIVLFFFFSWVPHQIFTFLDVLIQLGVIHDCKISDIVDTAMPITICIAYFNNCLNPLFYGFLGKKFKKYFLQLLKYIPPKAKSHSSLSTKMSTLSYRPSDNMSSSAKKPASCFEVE
T2 sequence (P35351 whole entry): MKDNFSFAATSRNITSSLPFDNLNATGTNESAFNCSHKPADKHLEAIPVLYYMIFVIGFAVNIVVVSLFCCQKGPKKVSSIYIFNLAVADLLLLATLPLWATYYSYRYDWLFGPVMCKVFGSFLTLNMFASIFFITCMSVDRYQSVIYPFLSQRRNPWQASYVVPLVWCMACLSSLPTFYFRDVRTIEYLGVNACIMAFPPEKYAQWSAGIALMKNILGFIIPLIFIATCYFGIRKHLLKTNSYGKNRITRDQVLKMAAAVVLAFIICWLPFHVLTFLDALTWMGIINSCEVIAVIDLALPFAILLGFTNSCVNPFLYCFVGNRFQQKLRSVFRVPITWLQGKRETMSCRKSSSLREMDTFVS
The experiment in a line: Binding affinity expressed as inhibitory concentration against angiotensin II of rat adrenal cortex. Format: tissue-based.

In experiment [6] the target is T1, Type-1 angiotensin II receptor. As to the kind of experiment: Compound was tested for in vitro for AII receptor antagonistic activity in bovine adrenal cortex. Format: functional, tissue-based.
Experiment [7] concerns Rattus norvegicus. As to the kind of experiment: Percent Inhibition of AII vasopressor response in SHR at 1 mg/kg oral dose in hypertensive rats after 5 h. The experiment is classed as functional.
For experiment [8], the target named is T2, Angiotensin II receptor. The experiment in a line: Binding affinity expressed as inhibitory concentration against angiotensin II receptor of rat adrenal cortex. The experiment is classed as tissue-based.

In the case of `CCCCc1nc2ccc(C(C)(O)C[C@H]3CCCN3)cc2c(=O)n1Cc1ccc(-c2ccccc2-c2nn[nH]n2)cc1` (stereo not given in full), the “Change in BP” value in the experiment with Rattus norvegicus [1] is reported as 32 mmHg. In addition, the Activity result in the experiment with Rattus norvegicus [2] was “Weak activity”.

`CCCCc1nc2ccc([C@]3(C)C[C@H]4CCCN4O3)cc2c(=O)n1Cc1ccc(-c2ccccc2-c2nn[n-]n2)cc1.[Na+]` (stereo in doubt; 1a): in experiment [3], the negative-log IC50 (pIC50) is 7.59. The “Change in BP” value in the experiment on Rattus norvegicus [4] (1 mg/kg) was 0 mmHg. The compound further had an IC50 on Angiotensin II receptor [5] of 17 nM.

With `CCCCc1nc2ccc(C(C)(O)C[C@H]3CCCN3)cc2c(=O)n1Cc1ccc(-c2ccccc2-c2nnn[nH]2)cc1` (stereo not given in full), in experiment [6], the negative logarithm of the IC50 (pIC50) is 8.46.

`CCCCc1nc2ccc([C@]3(C)C[C@H]4CCCN4O3)cc2c(=O)n1Cc1ccc(-c2ccccc2-c2nn[n-]n2)cc1.[Na+]` (stereo in doubt; 14) had a pIC50 in experiment [3] of 7.42. In the experiment on Rattus norvegicus [7], the inhibition in vivo at 1 mg/kg came to 40%. Further, the “Change in BP” value in the experiment with Rattus norvegicus [4] (1 mg/kg) was -4 mmHg. The compound further came in with an IC50 at Angiotensin II receptor [8] of 17 nM.

In turn, `CCc1nc2c(C)cc(C)nc2n1Cc1ccc(-c2ccccc2-c2nnn[nH]2)cc1` [L-158809] gave a pIC50 in experiment [6] of 7.57.

As for `CCCCc1nc2ccc([C@@]3(C)C[C@@H]4CCCN4O3)cc2c(=O)n1Cc1ccc(-c2ccccc2-c2nnn[n-]2)cc1.[Na+]`, the negative-log IC50 (pIC50) in experiment [3] was 7.11. Moreover, in the experiment on Rattus norvegicus [7], the inhibition in vivo at 1 mg/kg is -10%. For the same compound, in the experiment with Rattus norvegicus [4], the “Change in BP” value was -3 mmHg. The compound further had a 50% inhibitory concentration (IC50) on Angiotensin II receptor [8] of 26 nM.

One may read the pIC50 as −log10 of the IC50, conventionally taken in molar units. A high value points to a low IC50. As usually defined, the IC50 is the concentration needed to halve the response being measured. One may read the inhibition in vivo as the change of the read-out against control, counted positive when it falls.
